Results from PMC11459959, “Discovery of new acetamide derivatives of 5-indole-1,3,4-oxadiazol-2-thiol as inhibitors of HIV-1 Tat-mediated viral transcription” (Antimicrobial Agents and Chemotherapy, 2024).
Where two headings read alike, the source gives them in different places.

What was measured:
[1] = system: HIV-1NL4-3; test: Time-of-addition assay in TZM-bl cells; type: cell-based; conditions: HIV-1NL4-3 MOI 1, 9 and 13 1.5 μM, T-20 1 µM, triptolide 5 nM, ARVs 1 µM, F-Luc at 54 h
Protocol: Fig 5 (A) Time-of-addition assay. […] Subsequently, the cells were treated with the compounds at the indicated time points (0, 1, 2, 4, 6, 8, 10, 12, 24, 30, 36, 42, and 48 h) after HIV-1 infection. The final concentrations of compounds are described in Materials and Methods. Viral activity according to the timing of drug addition was measured as F-Luc activity at 54 h after infection. The relative activities are represented as the mean ± SD (n = 3) compared with the activity observed 54 h post-infection. The relative time frames associated with each HIV-1 infection step are defined based on the time frame of susceptibility to the drug that blocks that particular infection step. […] At 16 h after infection, the viral reverse transcription (RT) product (viral cDNA) level was determined by quantitative real-time PCR (RT-qPCR) using gag and 18S rRNA primer sets and represented as the mean ± SD (n = 3) normalized against the amount of the 18S rRNA compared with the DMSO control. **P < 0.01 compared with the vehicle (DMSO). (C) An in vitro integrase (IN) assay was performed with 10 µM of the indicated compounds following the manufacturer’s protocol. **P < 0.01 compared with vehicle (DMSO). (D) A3.01 cells were infected with HIV-1 upon treatment with the indicated compounds (5 µM) and ARVs (EFV and DTG) as the experimental controls. At 40 h after infection, cellular chromosomal DNA was purified, and the integrated proviral DNA was detected through nested Alu-PCR amplification.
A time-of-addition assay was performed as previously described ([25]) with minor modifications. […] Reference drug and test compounds were subsequently added at the indicated time (0, 1, 2, 4, 6, 8, 10, 12, 24, 30, 36, 42, and 48 h after infection). Final concentrations were as follows: compounds 9 and 13 (1.5 μM), T-20 (1 µM), Triptolide (5 nM), and ARVs (AZT, EFV, DTG, RAL) (1 µM). The viral activity according to the timing of drug addition was measured using a Bright Glo luciferase assay kit (Promega). Virus activity curves present a % activity relative to the activity observed at 54 h after infection, and the data are presented as the mean ± standard deviation (SD) (n = 3). The relative time frame associated with each HIV-1 infection step was defined based on the sensitivity to each drug that blocks a particular infection step.

[2] = Cell viability of TZM-bl cells (PrestoBlue); type: cell-based; conditions: human
Protocol: The TZM-bl cells (also referred to as JC53BL-13) expressing human CD4, CXCR4, and CCR5 carrying the F-Luc and lacZ genes downstream of the HIV-1 LTR promoter ([60]) were used to determine the inhibitory effect of the compounds on HIV-1 infection, as previously described ([11], [12], [61]). In brief, 1 × 10^4 cells were cultured in 96-well plates for 24 h and subsequently treated with compounds at the indicated concentrations. Without replacement of the culture medium, the cells were subsequently infected with the HIV-1NL4-3 wild-type or ARV-resistant HIV-1 strains at an MOI of 1 to determine the exact inhibitory effect of compounds on a single-round infection. After 48 h, the inhibitory effect of the compounds was determined using a Bright Glo luciferase assay kit (Promega) or β-Galactosidase Enzyme Assay kit (Promega). The infectivity data were presented as a percentage relative to the dimethyl sulfoxide (DMSO) control (vehicle). Cell viability was determined using the resazurin-based PrestoBlue Cell Viability Reagent (Thermo Fisher Scientific, Waltham, MA, USA) following the manufacturer’s instructions.

[3] = system: HIV-1NL4-3 IRES-eGFP-nef+; test: eGFP-encoding HIV-1 infection of TZM-bl cells; type: cell-based; conditions: 9, 10, 13 1.5 μM, 20, 21, 22 4 μM, seliciclib 10 µM, triptolide 5 nM, DTG 2 nM, EFV 2 nM, 2 days
Protocol: Fig 4 (A) Comparison of the chemical structures between prominent derivatives (9, 10, and 13) and non-functional derivatives (20, 21 and 22). (B) bl-DTR cells were treated with serial dilutions of each compound upon Dox for 24 h. The activities of F-Luc and R-Luc were determined using the Dual-Glo -Luciferase assay system. (C) TZM-bl cells were infected with the HIV-1NL4-3 strain at an MOI of 1 upon treatment of compounds. At 48 h after infection, the viral infectivity and cell viability were determined as described above (Fig. 1). (D) TZM-bl cells were infected with HIV-1NL4-3 IRES-eGFP virus along with the compound treatment. Two days later, GFP-expressing cells were observed by fluorescence microscopy (100× magnification). […] At 48 h after infection, the β-gal activity indicating viral infectivity was determined using the β-gal Enzyme Assay kit. F-Luc activity and cell viability were determined as described above (Fig. 4C). (C and E) The dose-response curves show the relative activity compared with that of the DMSO vehicle (mean ± SD; n = 3).

[4] = system: general cellular transcription/translation (R-Luc); test: Dual-reporter assay, R-Luc in bl-DTR cells; type: cell-based; conditions: doxycycline, 24 h
Protocol: (§1) Fig 1 (A) (Top panel) Schematic representation of the primary compound screening using a dual-reporter system. […] (B). […] (Top graphs) bl-DTR cells (1 × 10^4) were treated with twofold serial dilutions of each compound before doxycycline (Dox) addition (final concentration, 50 ng/mL). After 24 h of treatment, the activities of firefly luciferase (F-Luc, red line) and Renilla luciferase (R-Luc, blue line) were determined using the Dual-Glo Luciferase assay system. (Bottom graphs) TZM-bl cells were treated with each indicated compound and subsequently infected with the HIV-1NL4-3 strain at a multiplicity of infection (MOI) of 1. At 48 h after infection, the viral infectivity (purple line) and cell viability (green line) were determined using the Bright-Glo luciferase assay kit and the PrestoBlue Cell Viability Reagent, respectively. […] (C). […] The targeted moieties for the SAR study are marked with dotted-circle lines.
(§2) The Tzm-bl-derived dual Tat reporter; TZM-bl/Tat/Rluc (bl-DTR) cells were established from TZM-bl cells using two Dox-inducible lentiviral expression cassettes cloned with Flag-tagged Tat86 and the R-Luc gene, as described in our previous study ([11]). TZM-bl, A3.01, J1.1, and J-Lat 6.3 cells as well as the HIV-1 molecular clone pNL4-3, pNL(AD8), ARV-resistant HIV-1 strains, and HIV-1NL43-IRES-eGFP (pBR43IeG-nef^+, gifted by Dr. Frank Kirchhoff) ([52]) were provided by the National Institute of Health HIV Reagent Program (NIH, Bethesda, MD, USA). HeLa (CCL-2) and 293T (CRL-3216) cell lines were purchased from the American Type Culture Collection (ATCC, Manassas, VA, USA). The bl-DTR, TZM-bl, HeLa, and 293T cells were cultured in Dulbecco’s modified Eagle’s medium supplemented with 1% penicillin–streptomycin and 10% (vol/vol) heat-inactivated fetal bovine serum (all from Gibco-BRL, Gaithersburg, MD, USA), and 1 µg/mL of puromycin and 200 µg/mL of zeocin were additionally supplemented for the bl-DTR cells. PBMCs were purchased from AllCells (Alameda, CA, USA) and cultured as previously described ([12]). The information on ARV-resistant HIV-1 strains was described in previous reports as follows: NNRTI-resistant 12241 and 12243 ([53]); NRTI-resistant 7396, 7406, and 7407 ([54]); INSTI-resistant 11847 and 11849 ([55], [56]); and PI-resistant 11800 and 11803 ([57]). Each molecular HIV-1 clone was transfected to 293T cells, as previously described ([58]), to obtain infectious HIV-1 particles. Virus-containing cell culture supernatants were collected 3 days after transfection, and filtered through a 0.45-µm membrane filter (Millipore Sigma, Burlington, MA, USA) to remove cell debris. The viral titration was performed as described previously ([59]) with some minor modifications. In brief, 1 × 10^4 TZM-bl cells seeded in 96-well plates were infected with 200 µL of virus-containing medium diluted serially twofold. The incubation was for 2 days and the experiment was performed in triplicate; the infection time minimized the virus spread ([59]). The titration of the infectious viral particles was performed with a ß-Gal staining assay using the ßeta-Galactosidase Staining Kit (Mirus Bio, Madison, WI, USA) following the manufacturer’s protocols. In brief, the infected cells were washed with phosphate-buffered saline (PBS) and fixed using a Cell Fixative Working solution. The cells were washed with PBS and stained using the Cell Staining Working Solution containing X-gal. The infected blue-colored cells were counted under a microscope (100× magnification). The infectious virus titer was determined as a mean value of blue-colored cells count × dilution factor and used for determining the multiplicity of infection (MOI) in each infection experiment.

[5] = system: Tat-mediated LTR transcription; test: Dual-reporter assay, F-Luc (Tat-mediated LTR transcription) in bl-DTR cells; type: cell-based, HIV-1; conditions: Human immunodeficiency virus 1, 24 h, read-out: IC50 of F-Luc (Tat)
Protocol: as §1, §2

[6] = system: HIV-1NL4-3; test: HIV-1 infectivity in TZM-bl cells (F-Luc); type: cell-based; conditions: for EC50: Human immunodeficiency virus 1, TZM-bl, 48 h
[7] = system: NRTI-resistant HIV-1 strain 7396; test: microbe, parasite or virus in culture; type: cell-based; conditions: Human immunodeficiency virus 1, TZM-bl
Protocol: (§3) Fig 7 (A–C) TZM-bl cells (1 × 10^4 cells/well) cultured in a 96-well plate were treated with fivefold serial dilutions of the indicated compound or ARV for 1 h before infection with the HIV-1NL4-3 or ARV-resistant HIV-1 strains at an MOI of 1, respectively. At 48 h after infection, the EC50 values were determined using an F-Luc activity. The symbols represent the fold-change values of EC50 against each mutant virus relative to the wild-type (WT) virus. (D) PBMCs (5 × 10^4 cells/well) were infected with the HIV-1NL4-3 and PIs-resistant HIV-1 strain at an MOI of 0.1, respectively. Subsequently, the PBMCs were treated with 10-fold serial dilutions of the indicated compounds or PI. At 3 days after infection, the EC50 values on the viral replication were determined using a p24 […] assay kit. (E) The inhibitory kinetics for the WT and ARV-resistant viruses. TZM-bl cells infected with WT or ARV-resistant viruses were cultured upon fivefold serial dilutions of each compound for 2 days and the infectivity was determined using an F-Luc activity.
as §2

[8] = system: NRTI-resistant HIV-1 strain 7406; test: microbe, parasite or virus in culture; type: cell-based; conditions: Human immunodeficiency virus 1, TZM-bl
Protocol: as §3, §2

[9] = system: NRTI-resistant HIV-1 strain 7407; test: microbe, parasite or virus in culture; type: cell-based; conditions: Human immunodeficiency virus 1, TZM-bl
Protocol: as §3, §2

[10] = Cell viability of A3.01 cells; type: cell-based; conditions: human; A3.01 cells, absence of HIV-1 infection; mean ± SD; read-out: CC50
Protocol: (§4) The p24 level from the cell supernatant was subsequently determined using a p24 […] kit (PerkinElmer). In parallel, the cell viability was determined without viral infection because of the viral cytopathic effect. […] In parallel, cell viability was determined. The data (A and B) are presented as the mean ± SD (n = 3). (C) PBMCs (4 × 10^5) infected with HIV-AD8 at an MOI of 0.1 were treated with 1.5 µM of the compounds or ARVs for 3 days. The levels of p24 and cell viability were subsequently determined. (D) J1.1 cells were cultured with the compounds ([…]) under 50 ng/mL phorbol myristate acetate (PMA) treatment for 2 days. The level of p24 was subsequently determined. (E) J-Lat 6.3 cells were treated with the compounds (1.5 µM) under 1 µg/mL of PMA for 2 days. The GFP-positive cell population was analyzed using flow cytometry. The data are represented as a value relative to the DMSO-treated vehicle (D) and a percent of the GFP^+ cell population (E) as mean ± SD (n = 3).
(§5) The inhibitory effects of the compounds on viral replication were determined with some minor modifications, as previously described ([12], [62]). […] PBMCs (4 × 10^5) pre-activated with PHA-M for 3 days were washed with fresh media to remove excess PHA-M and subsequently infected with HIV-1NL4-3 or HIV-1AD8 or PIs-resistant HIV-1 strains as A3.01 infection. After infection, the infectious media were replaced with fresh media supplemented with international 10 units (IU)/mL of IL-2 and the indicated compounds. At 72 h after infection, the inhibitory effect of the compounds on viral replication was determined by measuring the p24 amount, an HIV capsid protein, using an HIV-1 p24 […] kit (PerkinElmer, Waltham, MA, USA). Cell viability was determined as described above. The inhibitory effects on provirus reversing in J1.1 and J-Lat 6.3 cells were determined as previously described ([12], [41], [63]) with some minor modifications. Briefly, 5 × 10^4 persistently HIV-1-infected J1.1 or J-Lat 6.3 cells were cultured in either the presence or absence of the compounds at a final concentration of 1.5 µM and treated with PMA (50 ng/mL for J1.1 cells, 1 µg/mL for J-Lat 6.3 cells). Two days after treatment, the levels of viral production were determined using p24 […] for J1.1 cells and flow cytometry analysis for GFP-expressing J-Lat 6.3 cells.

[11] = Cell viability of PBMCs; type: cell-based; conditions: human; PBMCs, absence of HIV-1 infection; mean ± SD; read-out: CC50
Protocol: as §4, §5

Molecule: enfuvirtide [Compound T-20]
- time of administration after infection at which effectiveness began to decrease / was lost [1]: 1 h

Molecule: Cc1[nH]c2ccc(-c3nnc(SCC(=O)N4CCCC(C)C4)o3)cc2c1C (stereo not shown) [Compound 10, 2-((5-(2,3-Dimethyl-1H-indol-5-yl)-1,3,4-oxadiazol-2-yl)thio)-1-(3-methylpiperidin-1-yl)ethan-1-one]
- CC50 at 48 h [2]: 82.5 ± 6.41 µM
- inhibition of viral-expressed eGFP signal [3]: remarkably inhibited
- Relative R-Luc activity at IC50 of F-Luc [4]: >100
- IC50 [5]: 1.1 ± 0.07 µM
- EC50 ([6]; TZM-bl cells infected with HIV-1NL4-3 at MOI 1, 48 h, F-Luc, mean ± SD, read-out: EC50): 0.56 ± 0.05 µM
- SI (CC50/EC50) ([6]; TZM-bl cells): 147.27

Molecule: Nc1ccn([C@@H]2CS[C@H](CO)O2)c(=O)n1 [Compound 3TC, lamivudine]
- EC50 [7]: 3.64 ± 1.37 µM
- EC50 [8]: > 100 µM
- EC50 [9]: > 100 µM
- EC50 ([6]; Table S1, WT virus, TZM-bl, fivefold serial dilutions, MOI 1, 48 h): 1.23 ± 0.22 µM

Molecule: Nc1nc(NC2CC2)c2ncn([C@H]3C=C[C@@H](CO)C3)c2n1 [ABC, abacavir]
- EC50 [7]: 22.4 ± 0.39 µM
- EC50 [8]: > 100 µM
- EC50 [9]: > 100 µM
- EC50 ([6]; Table S1, WT virus, TZM-bl, fivefold serial dilutions, MOI 1, 48 h, read-out: EC50): 12.2 ± 7.48 µM

Molecule: CC[C@H](CO)Nc1nc(NCc2ccccc2)c2ncn(C(C)C)c2n1 [seliciclib, reference compound]
- CC50 at 48 h ([2]; TZM-bl cells, absence of HIV-1 infection, mean ± SD, read-out: CC50): 39.2 ± 4.09 µM
- inhibition of viral-expressed eGFP signal [3]: remarkably inhibited
- CC50 at 3 days [10]: 27 ± 1.12 µM
- CC50 at 3 days [11]: 21.4 ± 2.1 µM
